Like-named read-outs stand apart in the source and are kept apart here.
Molecular target: T1, androgen receptor (AR) (Homo sapiens, UniProt P10275, T878A)
T1 construct: LNCaP cells expressing ARR2PB-FireflyLuc and CMV-RenillaLuc; endogenous in cells; host or cells: LNCaP cells carrying ARR2PB-FireflyLuc and CMV-RenillaLuc reporters
T1 sequence (P10275 1-920 T878A): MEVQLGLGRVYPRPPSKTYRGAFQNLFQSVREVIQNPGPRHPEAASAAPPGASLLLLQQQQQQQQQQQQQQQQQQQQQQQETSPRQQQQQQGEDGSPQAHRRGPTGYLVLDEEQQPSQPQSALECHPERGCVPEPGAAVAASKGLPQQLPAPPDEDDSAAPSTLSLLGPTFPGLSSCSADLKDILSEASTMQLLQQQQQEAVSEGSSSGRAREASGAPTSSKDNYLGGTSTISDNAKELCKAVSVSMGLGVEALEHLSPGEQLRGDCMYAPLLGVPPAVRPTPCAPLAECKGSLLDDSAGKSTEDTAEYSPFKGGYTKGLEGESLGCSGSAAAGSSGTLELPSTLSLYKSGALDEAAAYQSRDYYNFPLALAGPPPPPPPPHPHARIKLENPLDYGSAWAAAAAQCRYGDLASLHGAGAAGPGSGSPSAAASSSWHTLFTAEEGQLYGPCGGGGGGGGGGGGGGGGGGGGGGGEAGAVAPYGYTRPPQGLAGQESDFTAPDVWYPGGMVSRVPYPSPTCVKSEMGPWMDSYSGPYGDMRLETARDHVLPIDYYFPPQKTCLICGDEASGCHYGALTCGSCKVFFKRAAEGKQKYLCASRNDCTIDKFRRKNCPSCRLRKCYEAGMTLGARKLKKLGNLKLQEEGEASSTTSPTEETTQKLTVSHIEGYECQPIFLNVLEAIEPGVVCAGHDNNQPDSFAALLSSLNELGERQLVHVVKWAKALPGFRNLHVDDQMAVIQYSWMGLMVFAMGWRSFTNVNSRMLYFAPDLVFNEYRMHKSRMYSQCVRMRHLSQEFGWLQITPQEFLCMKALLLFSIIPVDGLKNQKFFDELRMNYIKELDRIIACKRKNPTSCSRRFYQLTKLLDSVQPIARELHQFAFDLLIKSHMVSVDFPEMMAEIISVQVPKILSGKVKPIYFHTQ
Assay: AR reporter assay in LNCaP cells expressing ARR2PB-FireflyLuc and CMV-RenillaLuc, antagonist mode (% remaining activity, IC50)
Type: cell-based
Settings: 48 h at 37° C., class symbols A-D
Procedure, shortened: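 LNCaP cells carrying ARR2PB-firefly and CMV-Renilla luciferase reporters were treated 48 h at 37 °C with compound plus 0.5 nM DHT. Signals were normalised between 0.5 nM DHT alone and 10 uM enzalutamide + DHT to give % remaining activity, and IC50 was obtained by non-linear regression.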

Row | Compound | IC50 (read-out: IC50) [µM] | IC50 (IC50 (μM)) [µM]
1 | N#Cc1cccc2c(-c3ccc4ccc(F)cc4n3)c[nH]c12 [Compound 120] | < 0.1 | –
2 | Fc1cc2[nH]nc(-c3ccc4c(n3)OCCN4)c2cc1F [Compound 69] | > 10 | –
3 | CC1(C)CCNc2ccc(-c3n[nH]c4ccccc34)nc21 [Compound 77] | 0.1 to 1 | –
4 | Fc1cc2[nH]nc(-c3ccc4c(-c5nnco5)c(F)ccc4n3)c2cc1F [Compound 33] | 0.1 to 1 | –
5 | COCC(=O)N1CCCc2nc(-c3n[nH]c4cc(F)c(F)cc34)ccc21 [Compound 37] | > 10 | –
6 | CC1(C)NC(=O)c2ccc(-c3c[nH]c4cc(F)c(F)cc34)nc21 [Compound 122] | 0.1 to 1 | –
7 | Fc1ccc(-c2c[nH]c3ncccc23)nc1 [Compound 126] | 0.1 to 1 | –
8 | Fc1ccc(-c2n[nH]c3ncccc23)cc1 [Compound 113] | 1 to 10 | –
9 | CC1CCNc2cnc(-c3n[nH]c4cc(F)c(F)cc34)cc21 (stereo not drawn) [Compound 49] | 1 to 10 | –
10 | N#Cc1cccc2c(-c3ccccn3)c[nH]c12 [Compound 176] | 0.1 to 1 | –
11 | c1ccc2c(-c3ccc4ccncc4n3)n[nH]c2c1 [Compound 8] | < 0.1 | –
12 | CN1C(=O)c2ccc(-c3c[nH]c4c(C#N)cccc34)nc2C1(C)C [Compound 156] | 0.1 to 1 | –
13 | Cc1nc(-c2c[nH]c3c(C#N)cccc23)cnc1NC1CCN(C)C1 (stereo not drawn) [Compound 182] | 0.1 to 1 | –
14 | Fc1ccc(-c2c[nH]c3cc(F)cnc23)nc1 [Compound 202] | 0.1 to 1 | –
15 | CCOC(=O)c1coc(-c2n[nH]c3c(C)cccc23)n1 [Compound 79] | > 10 | –
16 | Cc1nc(-c2n[nH]c3cc(F)c(F)cc23)ccc1N(C)C [Compound 98] | 1 to 10 | –
17 | Cc1nc(-c2c[nH]c3c(C#N)cccc23)cnc1NC1CCNC1 (stereo not drawn) [Compound 181] | 0.1 to 1 | –
18 | Cc1nc(-c2c[nH]c3c(S(C)(=O)=O)cccc23)ccc1N [Compound 208] | > 10 | –
19 | Cc1cccc(-c2c[nH]c3c(C#N)cccc23)n1 [Compound 133] | 0.1 to 1 | –
20 | Cc1nc(-c2c[nH]c3c(C#N)cccc23)ccc1OC1CCNC1=O (stereo not drawn) [Compound 199] | 1 to 10 | –
21 | CC(=O)N1CCCc2nc(-c3n[nH]c4cc(F)c(F)cc34)ccc21 [Compound 25] | 0.1 to 1 | –
22 | c1ccc2nc(-c3n[nH]c4ccccc34)ccc2c1 [Compound 117] | – | 0.1 to 1
23 | CC1NC(=O)c2ccc(-n3cnc4cc(F)c(F)cc43)nc21 (stereo not drawn) [Compound 108] | > 10 | –
24 | c1ccc2c(-c3ccc(N4CCNCC4)cn3)n[nH]c2c1 [Compound 64] | > 10 | –

Row | Compound | IC50 (read-out: IC50) [µM] | IC50 (IC50 (μM)) [µM]
25 | CCNc1ccc(-c2c[nH]c3c(C#N)cccc23)nc1C [Compound 147] | 0.1 to 1 | –
26 | Cc1nc(-c2c[nH]c3c(C#N)cccc23)cnc1OC1CCN(C)C1 (stereo not drawn) [Compound 193] | 1 to 10 | –
27 | CC(=O)N(C)c1ccc(-c2n[nH]c3cc(F)c(F)cc23)nc1C [Compound 97] | > 10 | –
28 | COc1ccc2nc(-c3n[nH]c4ccccc34)ccc2n1 [Compound 16] | > 10 | –
29 | Cc1nc(-c2c[nH]c3c(C4CC4)cccc23)ccc1N [Compound 142] | 1 to 10 | –
30 | N#Cc1cccc2c(-c3ccc4ccc(F)cc4n3)n[nH]c12 [Compound 63] | < 0.1 | –
31 | COCCNc1ccc(-c2c[nH]c3c(C#N)cccc23)nc1C [Compound 163] | 0.1 to 1 | –
32 | CN1CCN(c2ccc(-c3n[nH]c4ccccc34)nc2)CC1 [Compound 65] | > 10 | –
33 | N#Cc1cccc2c(-c3ccc4c(n3)CCCN4)c[nH]c12 [Compound 121] | < 0.1 | –
34 | Cc1nc(-c2c[nH]c3c(C(F)(F)F)cccc23)cnc1OC1CCNC1 (stereo not drawn) [Compound 198] | 0.1 to 1 | –
35 | CC1(C)CCNc2cnc(-c3n[nH]c4cc(F)c(F)cc34)cc21 [Compound 60] | > 10 | –
36 | CN1CCCc2nc(-c3n[nH]c4cc(F)c(F)cc34)ccc21 [Compound 24] | 1 to 10 | –
37 | Cc1nccc2nc(-c3n[nH]c4ccccc34)ccc12 [Compound 19] | < 0.1 | –
38 | COc1nccc2nc(-c3n[nH]c4ccccc34)ccc12 [Compound 12] | < 0.1 | –
39 | Fc1ccc(-c2c[nH]c3ccccc23)nc1 [Compound 119] | 0.1 to 1 | –
40 | O=C1NCc2nc(-c3n[nH]c4cc(F)c(F)cc34)ccc21 [Compound 41] | 1 to 10 | –
41 | Cc1[nH]nc(-c2ccc3c(n2)CCCN3)c1C [Compound 82] | > 10 | –
42 | CC(C)N1CCOc2ccc(-c3n[nH]c4cc(F)c(F)cc34)nc21 [Compound 76] | 1 to 10 | –
43 | COCCN1C(=O)c2ccc(-c3c[nH]c4c(C#N)cccc34)nc2C1(C)C [Compound 157] | > 10 | –
44 | CNC(=O)N1CCCc2nc(-c3n[nH]c4cc(F)c(F)cc34)ccc21 [Compound 38] | 1 to 10 | –
45 | CC(=O)Nc1ccc(-c2n[nH]c3cc(F)c(F)cc23)nc1C [Compound 96] | > 10 | –
46 | O=c1ccc2nc(-c3n[nH]c4ccccc34)ccc2[nH]1 [Compound 6] | 1 to 10 | –
47 | Fc1cc2[nH]nc(-c3ccc4cc(F)c(-c5nnco5)cc4n3)c2cc1F [Compound 34] | > 10 | –

Further lines, with some results ahead:

Row | IC50 (read-out: IC50) [µM] | Compound | IC50 (IC50 (μM)) [µM]
48 | 0.1 to 1 | CCc1nc(-c2c[nH]c3c(C#N)cccc23)cnc1N [Compound 214] | –
49 | 0.1 to 1 | CC(=O)N1CCC(Oc2ncc(-c3c[nH]c4c(C#N)cccc34)nc2Cl)C1 (stereo not drawn) [Compound 259] | –
50 | 0.1 to 1 | CC(=O)N1CCC(Oc2ccc(-c3c[nH]c4c(C#N)cccc34)nc2C)C1 (stereo not drawn) [Compound 260] | –
51 | > 10 | CSc1nc(-c2c[nH]c3c(C#N)cccc23)cnc1OC1CCNC1 (stereo not drawn) [Compound 307] | –
52 | 0.1 to 1 | Cc1nc(-c2csc3cc(F)ccc23)cnc1OCC(C)(C)O [Compound 336] | –
53 | > 10 | Cc1nc(-c2c[nH]c3c(C#N)cccc23)cnc1OC1CCNCC1 [Compound 233] | –
54 | > 10 | Cc1nc(-c2c[nH]c3c(C#N)cccc23)cnc1O[C@@H]1CN[C@@H](C)C1 [Compound 330] | –
55 | > 10 | Cc1nc(-c2c[nH]c3c(C#N)cccc23)cnc1N1CCC(N)C1 (stereo not drawn) [Compound 227] | –
56 | > 10 | Cc1nc(-c2c[nH]c3c(C#N)cccc23)cnc1OCC1(O)CC1 [Compound 333] | –
57 | 0.1 to 1 | CC(=O)N1CCC(Oc2ncc(-c3c[nH]c4c(Cl)cccc34)nc2C)C1 (stereo not drawn) [Compound 257] | –
58 | 1 to 10 | N#Cc1cccc2c(-c3ccc(OC4CCNC4)c(Cl)c3)c[nH]c12 (stereo not drawn) [Compound 241] | –
59 | 1 to 10 | Cc1nc(-c2c[nH]c3c(C#N)cccc23)cnc1OC[C@@H]1[C@@H]2CNC[C@@H]21 [Compound 247] | –
60 | 0.1 to 1 | Cc1nc(-c2c[nH]c3c(C#N)cccc23)ccc1OC1CCNC1 (stereo not drawn) [Compound 230] | –
61 | 0.1 to 1 | Nc1ccc(-c2c[nH]c3cc(F)c(F)cc23)nc1Cl [Compound 209] | –
62 | 1 to 10 | COCCN1CCC(Oc2ncc(-c3c[nH]c4c(C#N)cccc34)nc2C)C1 (stereo not drawn) [Compound 317] | –
63 | > 10 | CCc1nc(-c2c[nH]c3c(C#N)cccc23)cnc1OC1CCNC1 (stereo not drawn) [Compound 305] | –

Row | IC50 (read-out: IC50) [µM] | Compound | IC50 (IC50 (μM)) [µM]
64 | > 10 | CC1(CO)NC(=O)c2ccc(-c3c[nH]c4c(C#N)cccc34)nc21 (stereo not drawn) [Compound 266] | –
65 | 0.1 to 1 | COCC(C)Nc1ccc(-c2c[nH]c3c(C#N)cccc23)nc1C (stereo not drawn) [Compound 221] | –
66 | 0.1 to 1 | COc1nc(-c2c[nH]c3c(C#N)cccc23)cnc1N(C)C1CCN(C(C)=O)C1 (stereo not drawn) [Compound 294] | –
67 | 1 to 10 | N#Cc1cccc2c(-c3cnc(OC4CCNC4)c(C4CC4)n3)c[nH]c12 (stereo not drawn) [Compound 282] | –
68 | 0.1 to 1 | CC1(C)NC(=O)c2ccc(-c3c[nH]c4ncccc34)nc21 [Compound 315] | –
69 | 0.1 to 1 | CC1(C)NC(=O)c2ccc(-c3c[nH]c4c(F)cccc34)nc21 [Compound 295] | –
70 | 0.1 to 1 | CC(=O)N1CC(Oc2ncc(-c3c[nH]c4c(C#N)cccc34)nc2C)C(F)(F)C1 (stereo not drawn) [Compound 323] | –
71 | 0.1 to 1 | CC1(C)NC(=O)c2ccc(-c3c[nH]c4cc(F)ccc34)nc21 [Compound 216] | –
72 | 1 to 10 | COc1nc(-c2c[nH]c3c(C#N)cccc23)cnc1OC1CCN(C(C)=O)C1 (stereo not drawn) [Compound 306] | –
73 | > 10 | COc1ccc2c(-c3ccc(N)c(C)n3)c[nH]c2c1C#N [Compound 211] | –
74 | 0.1 to 1 | Cc1nc(-c2c[nH]c3c(C#N)cccc23)cnc1OC(C)CN (stereo not drawn) [Compound 303] | –
75 | < 0.1 | COc1nc(-c2c[nH]c3c(C#N)cccc23)cnc1NC1CCN(C(C)=O)C1 (stereo not drawn) [Compound 265] | –
76 | > 10 | Cc1nc(-c2c[nH]c3c(C#N)cccc23)cnc1OCCO [Compound 340] | –
77 | > 10 | CC1(C)NC(=O)c2ncc(-c3c[nH]c4c(C#N)cccc34)cc21 [Compound 271] | –
78 | > 10 | CCc1nc(-c2c[nH]c3c(Cl)cccc23)cnc1OC1CCNC1 (stereo not drawn) [Compound 253] | –
